Measurements from article PMC7076352 (Pharmaceutics, 2020).
Where “and” joins values, the source holds several entries; their conditions need not be identical. Identical values can stand only once. Like-named read-outs stand apart in the source and are kept apart here.

Assays:
CYP1A2 [1] = target: T1, CYP1A2 (Rattus norvegicus, UniProt P04799); assay: In vitro cocktail CYP450 activity assay in rat liver microsomes, CYP1A2 (phenacetin probe)
T1 sequence (P04799 1-513): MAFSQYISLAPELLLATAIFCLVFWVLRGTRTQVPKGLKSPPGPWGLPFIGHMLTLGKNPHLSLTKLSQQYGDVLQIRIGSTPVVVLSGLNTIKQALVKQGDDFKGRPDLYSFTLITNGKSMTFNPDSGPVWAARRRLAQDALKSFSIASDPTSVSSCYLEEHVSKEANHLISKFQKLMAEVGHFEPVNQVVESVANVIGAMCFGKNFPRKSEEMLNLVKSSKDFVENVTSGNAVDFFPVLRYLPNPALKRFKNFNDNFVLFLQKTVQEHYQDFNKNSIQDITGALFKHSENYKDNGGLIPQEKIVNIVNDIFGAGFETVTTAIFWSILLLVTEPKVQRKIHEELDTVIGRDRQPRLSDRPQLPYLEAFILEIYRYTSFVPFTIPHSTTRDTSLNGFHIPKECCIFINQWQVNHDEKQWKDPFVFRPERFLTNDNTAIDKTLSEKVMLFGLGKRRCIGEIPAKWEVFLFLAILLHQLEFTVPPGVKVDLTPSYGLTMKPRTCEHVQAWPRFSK
Protocol: (§1) (OHBUP-[D6]) and 5 nM 4′-hydroxydiclofenac-[^13C6] (OHDIC-[^13C6]) as internal standards (ISs). […]
(§2) standard addition experiments. Each group included four concentration levels. For the PK […]
(§3) The probe compounds, viz. […]
(§4) chosen after incubating all the recruited substrates. In order to assure the linear relationship […]
(§5) The incubation system was also optimized in terms of substrate concentrations. The substrates concentrations of […]

CYP450s = assay: In vitro cocktail CYP450 activity assay, isozyme not given; format: in vitro ADME, SD rat
Protocol: (OHBUP-[D6]) and 5 nM 4′-hydroxydiclofenac-[^13C6] (OHDIC-[^13C6]) as internal standards (ISs).

CYP2E1 = CYP2E1 (Rattus norvegicus, UniProt P05182); conditions: microsomes
CYP2E1, sequence (P05182 whole entry): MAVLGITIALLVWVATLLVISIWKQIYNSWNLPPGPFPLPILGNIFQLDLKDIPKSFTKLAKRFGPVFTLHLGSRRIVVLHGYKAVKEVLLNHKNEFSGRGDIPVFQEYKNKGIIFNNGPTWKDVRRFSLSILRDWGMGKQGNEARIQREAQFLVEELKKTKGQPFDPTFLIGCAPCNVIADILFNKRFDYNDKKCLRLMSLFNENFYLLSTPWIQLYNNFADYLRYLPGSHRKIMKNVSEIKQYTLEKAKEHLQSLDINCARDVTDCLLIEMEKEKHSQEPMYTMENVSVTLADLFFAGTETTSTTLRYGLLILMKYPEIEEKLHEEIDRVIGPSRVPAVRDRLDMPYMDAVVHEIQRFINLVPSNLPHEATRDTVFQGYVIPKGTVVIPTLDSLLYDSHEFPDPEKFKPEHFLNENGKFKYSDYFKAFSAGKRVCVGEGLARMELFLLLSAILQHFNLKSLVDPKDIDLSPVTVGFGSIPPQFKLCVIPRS
Protocol: For the cocktail assay, the activity is expressed as the percentage of activity remaining comparing with that of a control sample containing no inhibitor. […] All the data were described as mean ± standard deviation (SD). Normality assumptions were tested by the Kolmogorov–Smirnov statistic setting p = 0.10 as the limit for rejection of the null hypothesis of normality. If the distribution of the data was normal with equal variances, a two-sided test was performed at the 5% level of significance. The Welch’s correction was then applied when the underlying variances were not equal. When the assumption of normality must be rejected, the Mann-Whitney test, a non-parametric equivalent of the independent-measures t-test, was used.

CYP2B6 = assay: in vitro; conditions: microsomes
Protocol: as §1, §2, §3, §4, §5

CYP2C9 = assay: in vitro; conditions: microsomes
Protocol: as §1, §2, §3, §4, §5

CYP2D6 = assay: in vitro; conditions: microsomes
Protocol: as §1, §2, §3, §4, §5

CYP3A4 = assay: in vitro; conditions: microsomes
Protocol: as §1, §2, §3, §4, §5

CYP2C19 = assay: in vitro; conditions: microsomes
Protocol: as §1, §2, §3, §4, §5

CYP1A2 [2] = target: T1, CYP1A2; conditions: read-out: Reported IC50; positive inhibitor of CYP1A2, literature ref 9, 10,11; cited from earlier work

| IC50 (CYP1A2 [1]; microsomes) [µM] | IC50 (CYP450s) [µM] | IC50 (CYP2E1) [µM] | IC50 (CYP2B6) [µM] | IC50 (CYP2C9) [µM] | IC50 (CYP2D6) [µM] | IC50 (CYP3A4) [µM] | IC50 (CYP2C19) [µM] | Compound | IC50 (CYP1A2 [1]; Tested IC50) [µM] | IC50 (CYP1A2 [2]) |
| --- | --- | --- | --- | --- | --- | --- | --- | --- | --- | --- |
| 52.8 ± 1.93 | ≤ 15 | 40.8 ± 1.65 | 115 ± 3.04 | 55.8 ± 3.4 | 19.5 ± 2.83 | 26.4 ± 1.39 | 53.67 ± 0.22 | O=c1c(OC2O[C@H](CO)[C@@H](O)[C@H](O)[C@H]2O)c(-c2ccc(O)cc2)oc2cc(O)c(O)c(O)c12 (some centres unmarked) [A6, 6-hydoxykaempferol-3-O-glucoside] |  |  |
| > 200 | ≤ 15 | 9.06 ± 1.85 | > 200 | 1.21 ± 0.51 | 10.5 ± 1.11 | 34.4 ± 9.16 | 111 ± 21.6 | O=C(/C=C/c1ccc(O)cc1)C1=C(O)C2=C(O[C@H]([C@@H](O)[C@H](O)[C@H](O)CO)[C@H]2C2=C(O)/C(=C(O)/C=C/c3ccc(O)cc3)C(=O)C(O)([C@@H]3O[C@H](CO)[C@@H](O)[C@H](O)[C@H]3O)C2=O)C(O)([C@@H]2O[C@H](CO)[C@@H](O)[C@H](O)[C@H]2O)C1=O (some centres unmarked) [A8, anhydroxysafflor yellow B] |  |  |
| 13.3 ± 2.27 | ≤ 15 | 10.2 ± 0.65 | 21 ± 2.31 | 93 ± 2.56 | 37.1 ± 8.85 | 58.5 ± 0.66 | 48.9 ± 4.36 | O=c1c(O[C@@H]2O[C@H](CO)[C@@H](O)[C@H](O)[C@H]2O)c(-c2ccc(O)cc2)oc2cc(O)c(O[C@@H]3O[C@H](CO)[C@@H](O)[C@H](O)[C@H]3O)c(O)c12 [A13, 6-hydroxykaempferol-3,6-di-O-glucoside] |  |  |
|  |  |  |  |  |  |  |  | Cc1nc2c([nH]1)c(=O)n(C)c(=O)n2Cc1ccco1 [FUR, furafylline] | 0.597 ± 0.0514 | 1.3 µM and 1.76 to 13.9 µM |
